Measurements as given in patent publication US20130315848A1, “COSMETIC COMPOSITION FOR SKIN WHITENING COMPRISING RESVERATROL” (DSM IP ASSETS B.V., priority 2010, published 2013).

Experiment: Analysis of radioactivity in the formulations: trans/cis isomer content
Type: physicochemical
Details: 14C radioactivity in formulation extracts
Source text: The different degree of isomerization could be explained by the extent of light exposure during the preparation of the cream and/or during the extraction procedure in the course of the series of experiments.

Substance: [phenyl-^14C]-resveratrol [^14C-Resveratrol stock solution]
- Resveratrol cis isomer: 0%
- Resveratrol trans-isomer: 100%
